System: RA patients
Assay: Atherogenic index, Study 1 (RA patients, add-on to MTX)
Format: in vivo, human
Details: for Atherogenic index Mean percentage CFB - 12 weeks results / Atherogenic index Median CFB - 12 weeks results / Atherogenic index Mean CFB: 2 × 100 mg (b.i.d. group); for atherogenic index variation, decrease compared to pre-treatment baseline: Study 1, after 12 weeks treatment
Description: As used herein, the term ‘atherogenic index’ refers to
Double-blind, placebo-controlled add on study in subjects with moderately to severely active RA who have an inadequate response to methotrexate (MTX) (oral or parenteral).
Compound 1 (dosed as a [Compound 1:HCl:3H2O]) is dosed for twelve weeks once daily (q.d.) (50 mg, 100 mg or 200 mg) or twice daily (b.i.d.) (25 mg, 50 mg or 100 mg); or placebo.
At Week 12, the subjects on placebo who have not achieved 20% improvement in swollen joint count (SJC66) and tender joint count (TJC68) are re-randomized automatically to receive Compound 1 (dosed as a [Compound 1:HCl:3H2O]) either at 100 mg q.d. or 50 mg b.i.d. doses in a blinded fashion; subjects on 50 mg q.d. who have not achieved 20% improvement in SJC66 and TJC68 will be assigned to 100 mg q.d. and subjects on 25 mg b.i.d. that have not achieved a 20% improvement in SJC66 and TJC68 will be assigned to 50 mg b.i.d. Subjects who switch treatment at week 12 are handled as if they discontinued at week 12 for the purpose of statistical analysis, whereas subjects in the other groups will maintain their randomized treatment until Week 24.
The atherogenic index has been identified to be a good predictor of cardiovascular disorders risks and is calculated as follows: […]

[1] = increased from 25 mg b.i.d. to 50 mg b.i.d at 12 weeks, week 1
[2] = increased from 25 mg b.i.d. to 50 mg b.i.d at 12 weeks, week 2
[3] = increased from 25 mg b.i.d. to 50 mg b.i.d at 12 weeks, week 4
[4] = increased from 25 mg b.i.d. to 50 mg b.i.d at 12 weeks, week 8
[5] = increased from 25 mg b.i.d. to 50 mg b.i.d at 12 weeks, week 12
[6] = increased from 25 mg b.i.d. to 50 mg b.i.d at 12 weeks, week 16
[7] = increased from 25 mg b.i.d. to 50 mg b.i.d at 12 weeks, week 20
[8] = increased from 25 mg b.i.d. to 50 mg b.i.d at 12 weeks, week 24
[9] = increased from 50 mg q.d. to 100 mg q.d. at 12 weeks, week 1
[10] = increased from 50 mg q.d. to 100 mg q.d. at 12 weeks, week 2
[11] = increased from 50 mg q.d. to 100 mg q.d. at 12 weeks, week 4
[12] = increased from 50 mg q.d. to 100 mg q.d. at 12 weeks, week 8
[13] = increased from 50 mg q.d. to 100 mg q.d. at 12 weeks, week 12
[14] = increased from 50 mg q.d. to 100 mg q.d. at 12 weeks, week 16
[15] = increased from 50 mg q.d. to 100 mg q.d. at 12 weeks, week 20
[16] = increased from 50 mg q.d. to 100 mg q.d. at 12 weeks, week 24
[17] = placebo switched to 50 mg b.i.d at week 12, week 16
[18] = placebo switched to 50 mg b.i.d at week 12, week 20
[19] = placebo switched to 50 mg b.i.d at week 12, week 24
[20] = placebo switched to 100 mg q.d. at week 12, week 16
[21] = placebo switched to 100 mg q.d. at week 12, week 20
[22] = placebo switched to 100 mg q.d. at week 12, week 24

O=C(Nc1nc2cccc(-c3ccc(CN4CCS(=O)(=O)CC4)cc3)n2n1)C1CC1 [Compound 1, cyclopropanecarboxylic acid {5-[4-(1,1-dioxo-thiomorpholin-4-ylmethyl)-phenyl]-[1,2,4]triazolo[1,5-a]pyridin-2yl}-amide] was tested, and the “Atherogenic index Mean percentage CFB - 12 weeks results” value (week 2) was −5%, the “Atherogenic index Median CFB - 12 weeks results” value (week 2) was -0.20 mmol/L and the “Atherogenic index Mean CFB” value (week 4) was -0.30 mmol/L. The “Atherogenic index Mean percentage CFB - 12 weeks results” value (week 4) was −7%, the “Atherogenic index Median CFB - 12 weeks results” value (week 4) was -0.30 mmol/L and the “Atherogenic index Mean CFB” value (week 8) was -0.18 mmol/L. For the same compound, the “Atherogenic index Mean percentage CFB - 12 weeks results” value (week 8) was −4%, the “Atherogenic index Median CFB - 12 weeks results” value (week 8) was -0.20 mmol/L and the “Atherogenic index Mean CFB” value (week 12) was -0.24 mmol/L. For the same compound, the “Atherogenic index Mean percentage CFB - 12 weeks results” value (week 12) was −5%, the “Atherogenic index Median CFB - 12 weeks results” value (week 12) was -0.10 mmol/L and the “atherogenic index variation, decrease compared to pre-treatment baseline” value (100 mg/bid dose) was 0.2 fold. For the same compound, the “atherogenic index variation, decrease compared to pre-treatment baseline” value (200 mg q.d.) was 0.35 fold, the “Atherogenic index Mean CFB - 24 weeks results” value [1] was 0.05 mmol/L and the “Atherogenic index Mean percentage CFB - 24 weeks results” value [1] was 3.56%. For the same compound, the “Atherogenic index Median CFB - 24 weeks results” value [1] was -0.10 mmol/L, the “Atherogenic index Mean CFB - 24 weeks results” value [2] was -0.11 mmol/L and the “Atherogenic index Mean percentage CFB - 24 weeks results” value [2] was −1.15%. The “Atherogenic index Median CFB - 24 weeks results” value [2] was -0.20 mmol/L, the “Atherogenic index Mean CFB - 24 weeks results” value [3] was -0.15 mmol/L and the “Atherogenic index Mean percentage CFB - 24 weeks results” value [3] was −3.02%. For the same compound, the “Atherogenic index Median CFB - 24 weeks results” value [3] was -0.10 mmol/L, the “Atherogenic index Mean CFB - 24 weeks results” value [4] was -0.17 mmol/L and the “Atherogenic index Mean percentage CFB - 24 weeks results” value [4] was −3.11%. The “Atherogenic index Median CFB - 24 weeks results” value [4] was -0.10 mmol/L, the “Atherogenic index Mean CFB - 24 weeks results” value [5] was -0.19 mmol/L and the “Atherogenic index Mean percentage CFB - 24 weeks results” value [5] was −2.58%. The “Atherogenic index Median CFB - 24 weeks results” value [5] was -0.30 mmol/L, the “Atherogenic index Mean CFB - 24 weeks results” value [6] was -0.10 mmol/L and the “Atherogenic index Mean percentage CFB - 24 weeks results” value [6] was −0.03%. For the same compound, the “Atherogenic index Mean CFB - 24 weeks results” value [7] was -0.26 mmol/L, the “Atherogenic index Mean percentage CFB - 24 weeks results” value [7] was −4.14% and the “Atherogenic index Mean CFB - 24 weeks results” value [8] was -0.24 mmol/L. For the same compound, the “Atherogenic index Mean percentage CFB - 24 weeks results” value [8] was −4.89%, the “Atherogenic index Median CFB - 24 weeks results” value [8] was -0.30 mmol/L and the “Atherogenic index Mean CFB - 24 weeks results” value [9] was -0.03 mmol/L. For the same compound, the “Atherogenic index Mean percentage CFB - 24 weeks results” value [9] was 0.53%, the “Atherogenic index Median CFB - 24 weeks results” value [9] was 0.00 mmol/L and the “Atherogenic index Mean CFB - 24 weeks results” value [10] was -0.06 mmol/L. The “Atherogenic index Mean percentage CFB - 24 weeks results” value [10] was −0.94%, the “Atherogenic index Median CFB - 24 weeks results” value [10] was 0.10 mmol/L and the “Atherogenic index Mean CFB - 24 weeks results” value [11] was -0.11 mmol/L. The “Atherogenic index Mean percentage CFB - 24 weeks results” value [11] was −1.77%, the “Atherogenic index Median CFB - 24 weeks results” value [11] was -0.10 mmol/L and the “Atherogenic index Mean CFB - 24 weeks results” value [12] was -0.13 mmol/L. For the same compound, the “Atherogenic index Mean percentage CFB - 24 weeks results” value [12] was −1.35%, the “Atherogenic index Median CFB - 24 weeks results” value [12] was -0.10 mmol/L and the “Atherogenic index Mean CFB - 24 weeks results” value [13] was 0.02 mmol/L. For the same compound, the “Atherogenic index Mean percentage CFB - 24 weeks results” value [13] was 2.72%, the “Atherogenic index Median CFB - 24 weeks results” value [13] was 0.20 mmol/L and the “Atherogenic index Mean CFB - 24 weeks results” value [14] was -0.05 mmol/L. The “Atherogenic index Mean percentage CFB - 24 weeks results” value [14] was −0.95%, the “Atherogenic index Median CFB - 24 weeks results” value [14] was -0.10 mmol/L and the “Atherogenic index Mean CFB - 24 weeks results” value [15] was 0.02 mmol/L. For the same compound, the “Atherogenic index Mean percentage CFB - 24 weeks results” value [15] was −0.01%, the “Atherogenic index Median CFB - 24 weeks results” value [15] was 0.00 mmol/L and the “Atherogenic index Mean CFB - 24 weeks results” value [16] was -0.12 mmol/L. The “Atherogenic index Mean percentage CFB - 24 weeks results” value [16] was −2.40%, the “Atherogenic index Median CFB - 24 weeks results” value [16] was 0.00 mmol/L and the “Atherogenic index Mean CFB - 24 weeks results” value [17] was -0.47 mmol/L. The “Atherogenic index Mean percentage CFB - 24 weeks results” value [17] was −4.74%, the “Atherogenic index Median CFB - 24 weeks results” value [17] was -0.10 mmol/L and the “Atherogenic index Mean CFB - 24 weeks results” value [18] was -0.39 mmol/L. The “Atherogenic index Mean percentage CFB - 24 weeks results” value [18] was −6.13%, the “Atherogenic index Median CFB - 24 weeks results” value [18] was -0.20 mmol/L and the “Atherogenic index Mean CFB - 24 weeks results” value [19] was -0.45 mmol/L. For the same compound, the “Atherogenic index Mean percentage CFB - 24 weeks results” value [19] was −8.32%, the “Atherogenic index Median CFB - 24 weeks results” value [19] was -0.30 mmol/L and the “Atherogenic index Mean CFB - 24 weeks results” value [20] was -0.07 mmol/L. For the same compound, the “Atherogenic index Mean percentage CFB - 24 weeks results” value [20] was −0.54%, the “Atherogenic index Mean CFB - 24 weeks results” value [21] was -0.12 mmol/L and the “Atherogenic index Mean percentage CFB - 24 weeks results” value [21] was −1.77%. The “Atherogenic index Mean CFB - 24 weeks results” value [22] was -0.12 mmol/L and the “Atherogenic index Mean percentage CFB - 24 weeks results” value [22] was −3.43%.

— patent US10376520B2, “Methods for the treatment of cardiovascular disorders” (Galapagos NV, priority 2015, dated 2019)
